Assay results reported in patent US10442815B2, “Tricyclic heterocyclic compounds as phosphoinositide 3-kinase inhibitors” (Karus Therapeutics Limited, priority 2015, dated 2019).

Assays:
Assay in all cases: Ki determination, non-radiometric ADP-Glo assay (Proqinase GmbH)
Type in all cases: biochemical
[1] = molecular target: T1, PI3K p110α (Homo sapiens, UniProt P42336)
T1 construct: assay run at Proqinase GmbH
From the text: (§1) Biochemical activity against class I PI3K isoforms was confirmed by either Ki determination using the non-radiometric ADP-Glo™ assay (Promega, Madison, Wis., USA) at Proqinase GmbH, or IC50 determination using the HTRF biochemical assay at Reaction Biology Corp.

[2] = molecular target: T2, PI3K p110β (Homo sapiens, UniProt P42338)
T2 construct: assay run at Proqinase GmbH
From the text: as §1

[3] = molecular target: T3, PI3K p110γ (Homo sapiens, UniProt P48736)
T3 construct: assay run at Proqinase GmbH
From the text: as §1

[4] = molecular target: T4, PI3K p110δ (Homo sapiens, UniProt O00329)
T4 construct: assay run at Proqinase GmbH
From the text: as §1

T1 sequence (P42336 whole entry): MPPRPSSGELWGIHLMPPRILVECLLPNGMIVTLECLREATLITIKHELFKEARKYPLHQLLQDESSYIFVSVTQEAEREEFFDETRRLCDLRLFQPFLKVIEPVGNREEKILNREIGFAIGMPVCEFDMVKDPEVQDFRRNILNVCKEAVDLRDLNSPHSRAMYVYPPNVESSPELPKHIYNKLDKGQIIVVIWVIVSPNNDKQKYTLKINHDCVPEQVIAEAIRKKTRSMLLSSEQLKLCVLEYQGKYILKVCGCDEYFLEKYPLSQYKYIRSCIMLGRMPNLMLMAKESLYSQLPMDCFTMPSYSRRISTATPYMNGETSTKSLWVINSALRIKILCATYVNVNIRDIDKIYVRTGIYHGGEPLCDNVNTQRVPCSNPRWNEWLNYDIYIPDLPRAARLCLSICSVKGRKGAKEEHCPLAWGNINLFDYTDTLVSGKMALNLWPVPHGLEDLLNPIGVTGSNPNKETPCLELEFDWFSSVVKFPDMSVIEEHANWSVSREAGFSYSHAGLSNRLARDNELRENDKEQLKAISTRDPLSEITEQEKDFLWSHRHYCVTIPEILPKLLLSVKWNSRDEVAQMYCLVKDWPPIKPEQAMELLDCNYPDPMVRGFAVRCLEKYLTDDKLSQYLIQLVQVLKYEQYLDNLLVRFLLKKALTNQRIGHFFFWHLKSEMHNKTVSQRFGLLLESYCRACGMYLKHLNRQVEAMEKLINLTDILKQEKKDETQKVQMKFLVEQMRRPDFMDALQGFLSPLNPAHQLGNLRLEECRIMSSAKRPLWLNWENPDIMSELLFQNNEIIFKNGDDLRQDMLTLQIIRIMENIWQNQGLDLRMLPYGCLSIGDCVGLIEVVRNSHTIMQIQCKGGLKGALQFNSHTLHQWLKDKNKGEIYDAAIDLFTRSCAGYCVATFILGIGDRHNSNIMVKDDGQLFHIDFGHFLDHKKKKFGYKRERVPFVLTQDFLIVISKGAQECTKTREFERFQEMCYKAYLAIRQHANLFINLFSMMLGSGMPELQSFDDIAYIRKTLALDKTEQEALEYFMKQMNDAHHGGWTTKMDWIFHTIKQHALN
T1 sequence (P27986 whole entry partner): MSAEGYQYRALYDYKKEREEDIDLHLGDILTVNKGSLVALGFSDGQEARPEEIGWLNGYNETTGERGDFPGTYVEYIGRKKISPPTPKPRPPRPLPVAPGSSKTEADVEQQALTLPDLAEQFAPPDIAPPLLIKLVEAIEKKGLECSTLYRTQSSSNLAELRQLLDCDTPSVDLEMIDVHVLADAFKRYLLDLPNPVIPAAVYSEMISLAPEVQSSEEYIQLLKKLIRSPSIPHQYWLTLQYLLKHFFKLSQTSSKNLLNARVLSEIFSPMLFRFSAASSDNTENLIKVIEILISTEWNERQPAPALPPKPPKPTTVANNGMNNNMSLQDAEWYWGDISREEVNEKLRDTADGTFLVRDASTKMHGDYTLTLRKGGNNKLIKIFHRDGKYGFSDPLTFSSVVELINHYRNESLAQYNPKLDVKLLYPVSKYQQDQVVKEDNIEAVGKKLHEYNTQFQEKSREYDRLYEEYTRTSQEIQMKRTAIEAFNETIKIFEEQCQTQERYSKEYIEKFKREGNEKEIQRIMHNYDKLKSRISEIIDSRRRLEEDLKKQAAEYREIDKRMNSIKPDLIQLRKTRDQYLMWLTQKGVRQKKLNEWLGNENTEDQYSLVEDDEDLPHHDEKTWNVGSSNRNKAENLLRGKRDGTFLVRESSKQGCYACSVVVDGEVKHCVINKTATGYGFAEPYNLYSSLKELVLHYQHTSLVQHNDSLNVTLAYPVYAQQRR
T4 sequence (O00329 whole entry): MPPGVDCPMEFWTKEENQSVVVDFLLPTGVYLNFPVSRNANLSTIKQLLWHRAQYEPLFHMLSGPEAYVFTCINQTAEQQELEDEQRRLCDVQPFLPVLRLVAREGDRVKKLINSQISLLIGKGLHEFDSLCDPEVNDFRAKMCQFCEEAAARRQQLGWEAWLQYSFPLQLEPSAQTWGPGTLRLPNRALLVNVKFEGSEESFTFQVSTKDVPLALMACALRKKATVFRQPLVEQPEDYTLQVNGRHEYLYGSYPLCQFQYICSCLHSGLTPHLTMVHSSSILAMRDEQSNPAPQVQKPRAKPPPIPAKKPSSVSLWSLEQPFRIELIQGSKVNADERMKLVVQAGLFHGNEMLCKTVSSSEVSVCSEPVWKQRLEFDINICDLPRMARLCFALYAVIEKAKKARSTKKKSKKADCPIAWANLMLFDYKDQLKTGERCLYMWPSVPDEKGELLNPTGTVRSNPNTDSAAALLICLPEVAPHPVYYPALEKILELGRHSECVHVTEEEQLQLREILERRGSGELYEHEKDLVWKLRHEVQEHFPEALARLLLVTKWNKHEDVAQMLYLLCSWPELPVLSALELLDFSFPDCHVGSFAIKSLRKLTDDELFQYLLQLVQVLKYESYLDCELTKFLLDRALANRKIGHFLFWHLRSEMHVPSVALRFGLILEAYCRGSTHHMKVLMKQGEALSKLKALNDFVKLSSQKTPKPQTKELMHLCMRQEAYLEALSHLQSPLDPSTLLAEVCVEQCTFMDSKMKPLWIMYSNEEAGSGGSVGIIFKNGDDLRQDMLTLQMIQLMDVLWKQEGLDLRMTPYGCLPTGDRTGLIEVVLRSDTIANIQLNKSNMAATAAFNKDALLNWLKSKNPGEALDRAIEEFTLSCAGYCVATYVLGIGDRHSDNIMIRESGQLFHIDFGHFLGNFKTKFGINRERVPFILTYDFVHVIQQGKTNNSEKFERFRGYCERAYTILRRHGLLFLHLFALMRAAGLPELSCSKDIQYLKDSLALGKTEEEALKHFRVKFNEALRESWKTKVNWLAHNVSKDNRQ
T4 sequence (P27986 whole entry partner): as the sequence (P27986 whole entry partner) above
T2 sequence (P42338 whole entry): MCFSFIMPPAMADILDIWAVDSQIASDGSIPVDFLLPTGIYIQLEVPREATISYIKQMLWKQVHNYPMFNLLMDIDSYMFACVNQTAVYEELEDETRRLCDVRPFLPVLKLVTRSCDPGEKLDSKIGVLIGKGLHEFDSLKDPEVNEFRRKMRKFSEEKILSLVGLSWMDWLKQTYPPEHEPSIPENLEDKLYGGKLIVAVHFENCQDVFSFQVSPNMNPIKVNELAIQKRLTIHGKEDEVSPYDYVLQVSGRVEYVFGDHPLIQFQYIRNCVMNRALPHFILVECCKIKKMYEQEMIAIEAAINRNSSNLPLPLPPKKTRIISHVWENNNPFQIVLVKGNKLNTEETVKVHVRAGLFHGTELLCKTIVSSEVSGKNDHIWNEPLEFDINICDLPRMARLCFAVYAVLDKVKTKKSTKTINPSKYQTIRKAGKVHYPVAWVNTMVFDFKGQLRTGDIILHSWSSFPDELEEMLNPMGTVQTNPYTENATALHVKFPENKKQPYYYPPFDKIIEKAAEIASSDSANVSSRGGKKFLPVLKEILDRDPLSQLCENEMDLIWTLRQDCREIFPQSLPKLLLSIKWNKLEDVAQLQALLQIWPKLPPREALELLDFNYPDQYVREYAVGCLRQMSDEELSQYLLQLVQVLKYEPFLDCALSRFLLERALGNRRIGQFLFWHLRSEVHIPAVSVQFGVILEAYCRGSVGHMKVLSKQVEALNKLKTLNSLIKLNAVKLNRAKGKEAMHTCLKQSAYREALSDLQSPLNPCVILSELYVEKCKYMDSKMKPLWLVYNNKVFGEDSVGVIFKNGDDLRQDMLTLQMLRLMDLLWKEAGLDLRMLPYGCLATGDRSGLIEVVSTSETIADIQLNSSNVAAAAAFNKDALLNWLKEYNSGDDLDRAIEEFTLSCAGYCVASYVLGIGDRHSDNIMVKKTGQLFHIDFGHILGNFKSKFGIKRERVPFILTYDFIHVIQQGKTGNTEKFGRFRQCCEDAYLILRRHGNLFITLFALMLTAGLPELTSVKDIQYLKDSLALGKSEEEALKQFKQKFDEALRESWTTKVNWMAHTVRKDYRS
T2 sequence (P27986 whole entry partner): as the sequence (P27986 whole entry partner) above
T3 sequence (P48736 whole entry): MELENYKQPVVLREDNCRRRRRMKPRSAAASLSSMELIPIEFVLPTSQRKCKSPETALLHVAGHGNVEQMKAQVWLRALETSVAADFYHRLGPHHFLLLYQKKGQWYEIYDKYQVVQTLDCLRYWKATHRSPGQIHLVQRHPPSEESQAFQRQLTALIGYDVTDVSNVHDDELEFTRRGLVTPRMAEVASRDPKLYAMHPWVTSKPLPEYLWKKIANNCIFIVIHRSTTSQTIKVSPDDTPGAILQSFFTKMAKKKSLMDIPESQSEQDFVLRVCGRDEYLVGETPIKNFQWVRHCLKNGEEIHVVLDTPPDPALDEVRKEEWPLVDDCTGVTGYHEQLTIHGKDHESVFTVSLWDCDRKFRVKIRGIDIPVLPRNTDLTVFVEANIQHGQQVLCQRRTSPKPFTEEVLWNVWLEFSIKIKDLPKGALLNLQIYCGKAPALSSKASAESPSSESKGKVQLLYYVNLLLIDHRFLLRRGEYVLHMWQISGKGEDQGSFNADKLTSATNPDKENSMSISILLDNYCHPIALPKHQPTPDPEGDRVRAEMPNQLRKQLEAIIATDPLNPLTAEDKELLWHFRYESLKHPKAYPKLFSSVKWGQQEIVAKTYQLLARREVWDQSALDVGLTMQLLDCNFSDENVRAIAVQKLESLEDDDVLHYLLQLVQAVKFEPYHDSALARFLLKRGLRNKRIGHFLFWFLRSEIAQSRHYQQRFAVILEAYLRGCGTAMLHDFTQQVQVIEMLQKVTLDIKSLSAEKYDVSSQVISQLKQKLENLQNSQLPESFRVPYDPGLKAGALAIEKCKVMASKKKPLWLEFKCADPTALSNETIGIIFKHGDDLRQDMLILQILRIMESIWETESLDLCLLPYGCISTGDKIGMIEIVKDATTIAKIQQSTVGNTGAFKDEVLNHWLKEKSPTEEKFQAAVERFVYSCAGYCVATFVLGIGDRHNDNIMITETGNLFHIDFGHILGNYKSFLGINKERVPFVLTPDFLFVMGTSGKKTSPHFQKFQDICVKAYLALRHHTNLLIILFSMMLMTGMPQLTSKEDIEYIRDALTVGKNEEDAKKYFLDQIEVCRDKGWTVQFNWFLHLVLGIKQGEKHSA

O=S1(=O)C[C@@H]2C[C@H]1CN2Cc1cnc2oc3c(N4CCOCC4)nc(-c4cccc5[nH]ccc45)nc3c2c1 [Example K, (1S,4S)-5-{[4-(1H-Indol-4-yl)-6-(morpholin-4-yl)-8-oxa-3,5,10-triazatricyclo[7.4.0.0^2,7]trideca-1(13),2,4,6,9,11-hexaen-12-yl]methyl}-2λ^6-thia-5-azabicyclo[2.2.1]heptane-2,2-dione]
Ki [1]: 1000 to 10000 nM
Ki [2]: ≤ 500 nM
Ki [3]: > 10000 nM
Ki [4]: ≤ 500 nM

[O-][S+]1CCN(Cc2cnc3oc4c(N5CCOCC5)nc(-c5cccc6c5CCN6)nc4c3c2)CC1 [Example O, 4-{[4-(2,3-Dihydro-1H-indol-4-yl)-6-(morpholin-4-yl)-8-oxa-3,5,10-triazatricyclo[7.4.0.0^2,7]trideca-1(13),2(7),3,5,9,11-hexaen-12-yl]methyl}-1λ^4-thiomorpholin-1-one]
Ki [1]: > 10000 nM
Ki [2]: ≤ 500 nM
Ki [3]: > 10000 nM
Ki [4]: ≤ 500 nM

C[C@@H](c1cnc2oc3c(N4CCOCC4)nc(-c4cccc5[nH]ccc45)nc3c2c1)N1CCS(=O)(=O)CC1 [Example I, 4-[(1S)-1-[4-(1H-Indol-4-yl)-6-(morpholin-4-yl)-8-oxa-3,5,10-triazatricyclo[7.4.0.0^2,7]trideca-1(13),2,4,6,9,11-hexaen-12-yl]ethyl]-1λ^6-thiomorpholine-1,1-dione]
Ki [1]: ≤ 500 nM
Ki [2]: ≤ 500 nM
Ki [3]: > 10000 nM
Ki [4]: ≤ 500 nM

Cc1ccc2c(c1-c1nc(N3CCOCC3)c3oc4ncc(CN5CC[S+]([O-])CC5)cc4c3n1)CCN2 [Example V, 4-{[4-(5-Methyl-2,3-dihydro-1H-indol-4-yl)-6-(morpholin-4-yl)-8-oxa-3,5,10-triazatricyclo[7.4.0.0^2,7]trideca-1(9),2,4,6,10,12-hexaen-12-yl]methyl}-1λ^4-thiomorpholin-1-one]
Ki [1]: > 10000 nM
Ki [2]: 1000 to 10000 nM
Ki [3]: > 10000 nM
Ki [4]: ≤ 500 nM

O=S1(=O)CCN(Cc2cnc3oc4c(N5CCOCC5)nc(-c5cccc6[nH]ccc56)nc4c3c2)CC1 [Example A, 4-{[4-(1H-Indol-4-yl)-6-(morpholin-4-yl)-8-oxa-3,5,10-triazatricyclo[7.4.0.0^2,7]trideca-1(13),2(7),3,5,9,11-hexaen-12-yl]methyl]-1λ^6-thiomorpholine-1,1-dione]
Ki [1]: 1000 to 10000 nM
Ki [2]: ≤ 500 nM
Ki [3]: > 10000 nM
Ki [4]: ≤ 500 nM

CC(C)Oc1ccc2[nH]ccc2c1-c1nc(N2CCOCC2)c2oc3ncc(CN4CC[S+]([O-])CC4)cc3c2n1 [Example Y, 4-{[6-(Morpholin-4-yl)-4-[5-(propan-2-yloxy)-1H-indol-4-yl]-8-oxa-3,5,10-triazatricyclo[7.4.0.0^2^,7]trideca-1(9),2,4,6,10,12-hexaen-12-yl]methyl}-1λ^4-thiomorpholin-1-one]
Ki [1]: 500 to 1000 nM
Ki [2]: ≤ 500 nM
Ki [3]: 1000 to 10000 nM
Ki [4]: ≤ 500 nM

COc1ccc2c(c1-c1nc(N3CCOCC3)c3oc4ncc(CN5CC[S+]([O-])CC5)cc4c3n1)CCN2 [Example AI, 4-{[4-(5-Methoxy-2,3-dihydro-1H-indol-4-yl)-6-(morpholin-4-yl)-8-oxa-3,5,10-triazatricyclo[7.4.0.0^2^,7]trideca-1(13),2(7),3,5,9,11-hexaen-12-yl]methyl}-1λ^4-thiomorpholin-1-one]
Ki [1]: > 10000 nM
Ki [2]: 1000 to 10000 nM
Ki [3]: > 10000 nM
Ki [4]: ≤ 500 nM

c1cc(-c2nc(N3CCOCC3)c3oc4ncc(CN5C[C@@H]6C[C@H]5CS6)cc4c3n2)c2cc[nH]c2c1 [Example J, 4-(1H-Indol-4-yl)-6-(morpholin-4-yl)-12-[(1 S,4S)-2-thia-5-azabicyclo[2.2.1]heptan-5-ylmethyl]-8-oxa-3,5,10-triazatricyclo[7.4.0.0^2,7]trideca-1(13),2,4,6,9,11-hexaene]
Ki [1]: 1000 to 10000 nM
Ki [2]: ≤ 500 nM
Ki [3]: > 10000 nM
Ki [4]: ≤ 500 nM

O=C(O)c1ccc2[nH]ccc2c1-c1nc(N2CCOCC2)c2oc3ncc(CN4CC[S+]([O-])CC4)cc3c2n1 [Example X, 4-[6-(morpholin-4-yl)-12-[(1-oxo-1λ^4-thiomorpholin-4-yl)methyl]-8-oxa-3,5,10-triazatricyclo[7.4.0.0^2,^7]trideca-1(13),2(7),3,5,9,11-hexaen-4-yl]-1H-indole-5-carboxylic acid]
Ki [1]: > 10000 nM
Ki [2]: > 10000 nM
Ki [3]: > 10000 nM
Ki [4]: > 10000 nM

Cc1c[nH]c2cccc(-c3nc(N4CCOCC4)c4oc5ncc(CN6CC[S+]([O-])CC6)cc5c4n3)c12 [Example AL, 4-{[4-(3-Methyl-1H-indol-4-yl)-6-(morpholin-4-yl)-8-oxa-3,5,10-triazatricyclo[7.4.0.0^2^,7]trideca-1(13),2(7),3,5,9,11-hexaen-12-yl]methyl}-1λ^4-thiomorpholin-1-one]
Ki [1]: > 10000 nM
Ki [2]: > 10000 nM
Ki [3]: > 10000 nM
Ki [4]: 1000 to 10000 nM

[O-][S+]1CCN(Cc2cnc3oc4c(N5CCOCC5)nc(-c5cccc6[nH]cc(F)c56)nc4c3c2)CC1 [Example AJ, 4-{[4-(3-fluoro-1H-indol-4-yl)-6-(morpholin-4-yl)-8-oxa-3,5,10-triazatricyclo[7.4.0.0^2^,7]trideca-1(13),2(7),3,5,9,11-hexaen-12-yl]methyl}-1λ^4-thiomorpholin-1-one]
Ki [1]: > 10000 nM
Ki [2]: 1000 to 10000 nM
Ki [3]: > 10000 nM
Ki [4]: ≤ 500 nM

[O-][S+]1CCN(Cc2cnc3oc4c(N5CCOCC5)nc(-c5c(Cl)ccc6[nH]ccc56)nc4c3c2)CC1 [Example T, 4-{[4-(5-Chloro-1H-indol-4-yl)-6-(morpholin-4-yl)-8-oxa-3,5,10-triazatricyclo[7.4.0.0^2,7]trideca-1(9),2,4,6,10,12-hexaen-12-yl]methyl}-1λ^4-thiomorpholin-1-one]
Ki [1]: 1000 to 10000 nM
Ki [2]: ≤ 500 nM
Ki [3]: > 10000 nM
Ki [4]: ≤ 500 nM

O=C1Cc2c(cccc2-c2nc(N3CCOCC3)c3oc4ncc(CN5CC[S+]([O-])CC5)cc4c3n2)N1 [Example N, 4-[6-(morpholin-4-yl)-12-[(1-oxo-1λ^4-thiomorpholin-4-yl)methyl]-8-oxa-3,5,10-triazatricyclo[7.4.0.0^2,^7]trideca-1(13),2(7),3,5,9,11-hexaen-4-yl]-2,3-dihydro-1H-indol-2-one]
Ki [1]: > 10000 nM
Ki [2]: > 10000 nM
Ki [3]: > 10000 nM
Ki [4]: > 10000 nM

N#Cc1ccc2[nH]ccc2c1-c1nc(N2CCOCC2)c2oc3ncc(CN4CC[S+]([O-])CC4)cc3c2n1 [Example W, 4-[6-(morpholin-4-yl)-12-[(1-oxo-1λ^4-thiomorpholin-4-yl)methyl]-8-oxa-3,5,10-triazatricyclo[7.4.0.0^2,^7]trideca-1(9),2,4,6,10,12-hexaen-4-yl]-1H-indole-5-carbonitrile]
Ki [1]: ≤ 500 nM
Ki [2]: ≤ 500 nM
Ki [3]: > 10000 nM
Ki [4]: ≤ 500 nM

[O-][S+]1CCN(Cc2cnc3oc4c(N5CCOCC5)nc(-c5cccc6[nH]ccc56)nc4c3c2)CC1 [Example AH, 4-{[4-(1H-indol-4-yl)-6-(morpholin-4-yl)-8-oxa-3,5,10-triazatricyclo[7.4.0.0^2^,7]trideca-1(13),2(7),3,5,9,11-hexaen-12-yl]methyl}-1λ^4-thiomorpholin-1-one]
Ki [1]: 1000 to 10000 nM
Ki [2]: ≤ 500 nM
Ki [3]: > 10000 nM
Ki [4]: ≤ 500 nM

[O-][S+]1CCN(Cc2cnc3oc4c(N5CCOCC5)nc(-c5cc(F)cc6[nH]ccc56)nc4c3c2)CC1 [Example D]
Ki [1]: > 10000 nM
Ki [2]: ≤ 500 nM
Ki [3]: > 10000 nM
Ki [4]: ≤ 500 nM

Cc1ccc2[nH]ccc2c1-c1nc(N2CCOCC2)c2oc3ncc(CN4CC[S+]([O-])CC4)cc3c2n1 [Example P, 4-{[4-(5-Methyl-1H-indol-4-yl)-6-(morpholin-4-yl)-8-oxa-3,5,10-triazatricyclo[7.4.0.0^2,7]trideca-1(9),2,4,6,10,12-hexaen-12-yl]methyl}-1λ^4-thiomorpholin-1-one]
Ki [1]: 1000 to 10000 nM
Ki [2]: ≤ 500 nM
Ki [3]: 1000 to 10000 nM
Ki [4]: ≤ 500 nM

[O-][S+]1CCN(Cc2cnc3oc4c(N5CCOCC5)nc(-c5ccc(F)c6[nH]ccc56)nc4c3c2)CC1 [Example Q, 4-{[4-(7-Fluoro-1H-indol-4-yl)-6-(morpholin-4-yl)-8-oxa-3,5,10-triazatricyclo[7.4.0.0^2,7]trideca-1(13),2(7),3,5,9,11-hexaen-12-yl]methyl}-1λ^4-thiomorpholin-1-one]
Ki [1]: > 10000 nM
Ki [2]: 1000 to 10000 nM
Ki [3]: > 10000 nM
Ki [4]: ≤ 500 nM

Cc1cc2c(-c3nc(N4CCOCC4)c4oc5ncc(CN6CC[S+]([O-])CC6)cc5c4n3)cccc2[nH]1 [Example AG, 4-{[4-(2-methyl-1H-indol-4-yl)-6-(morpholin-4-yl)-8-oxa-3,5,10-triazatricyclo[7.4.0.0^2^,7]trideca-1(13),2(7),3,5,9,11-hexaen-12-yl]methyl}-1λ^4-thiomorpholin-1-one]
Ki [1]: 500 to 1000 nM
Ki [2]: ≤ 500 nM
Ki [3]: 1000 to 10000 nM
Ki [4]: ≤ 500 nM

[O-][S+]1CCN(Cc2cnc3oc4c(N5CCOCC5)nc(-c5cc(Cl)cc6[nH]ccc56)nc4c3c2)CC1 [Example AM, 4-{[4-(6-Chloro-1H-indol-4-yl)-6-(morpholin-4-yl)-8-oxa-3,5,10-triazatricyclo[7.4.0.0^2^,7]trideca-1(13),2(7),3,5,9,11-hexaen-12-yl]methyl}-1λ^4-thiomorpholin-1-one]
Ki [1]: > 10000 nM
Ki [2]: > 10000 nM
Ki [3]: > 10000 nM
Ki [4]: 1000 to 10000 nM

[O-][S+]1CCN(Cc2cnc3sc4c(N5CCOCC5)nc(-c5cccc6[nH]ccc56)nc4c3c2)CC1 [Example AK, 4-{[4-(1H-Indol-4-yl)-6-(morpholin-4-yl)-8-thia-3,5,10-triazatricyclo[7.4.0.0^2^,7]trideca-1(9),2,4,6,10,12-hexaen-12-yl]methyl}-1λ^4-thiomorpholin-1-one]
Ki [1]: > 10000 nM
Ki [2]: 1000 to 10000 nM
Ki [3]: > 10000 nM
Ki [4]: 1000 to 10000 nM

N=S1(=O)CCN(Cc2cnc3oc4c(N5CCOCC5)nc(-c5cccc6[nH]ccc56)nc4c3c2)CC1 [Example G]
Ki [1]: 500 to 1000 nM
Ki [2]: ≤ 500 nM
Ki [3]: 1000 to 10000 nM
Ki [4]: ≤ 500 nM
